ChEMBL document CHEMBL4610120, “New Broad-Spectrum Antibiotics Containing a Pyrrolobenzodiazepine Ring with Activity against Multidrug-Resistant Gram-Negative Bacteria” (J Med Chem, 2020)
Converted amounts (≈) assume the structure as drawn.

Legend:
[1] = Selectivity ratio of cytotoxicity against human WI38 cells to MIC for Acinetobacter baumannii ATCC 17978; type: toxicity, cell-based
[2] = Selectivity ratio of cytotoxicity against human WI38 cells to MIC for Klebsiella pneumoniae M6; type: toxicity, cell-based
Acinetobacter baumannii [3] = assay: Antimicrobial activity against Acinetobacter baumannii ATCC 17978 by microdilution broth method; type: functional
[4] = Cytotoxicity against human WI38 cells assessed as cell viability at 20 uM measured after 24 hrs by MTT assay relative to control; type: cell-based, WI-38; conditions: read-out: Activity
[5] = Selectivity ratio of cytotoxicity against human WI38 cells to MIC for vancomycin sensitive Enterococcus faecalis NCTC 775; type: toxicity, cell-based
DNA [6] = assay: Stabilization of 5'-FAM-TAT-AGA-TAT-AGA-TAT-TTT-ATA-TCT-ATA-TCT-ATA-3'-TAMRA DNA (unknown origin) assessed as reduction in change in melting temperature at 1:1 to 5:1 ligand to DNA ratio measured after 3 hrs by FRET-based assay relative to control; type: ADME, nucleic-acid assay
Staphylococcus aureus [7] = assay: Antibacterial activity against methicillin resistant Staphylococcus aureus NCTC 13616 by microdilution broth method; type: functional
[8] = Selectivity ratio of cytotoxicity against human WI38 cells to MIC for multidrug-resistant Pseudomonas aeruginosa NCTC 13437; type: toxicity, cell-based
[9] = Selectivity ratio of cytotoxicity against human WI38 cells to MIC for methicillin resistant Staphylococcus aureus NCTC 13616; type: toxicity, cell-based
Enterococcus faecalis [10] = assay: Antibacterial activity against vancomycin resistant Enterococcus faecalis NCTC 12201 by microdilution broth method; type: functional
[11] = Selectivity ratio of cytotoxicity against human WI38 cells to MIC for vancomycin resistant Enterococcus faecalis NCTC 12201; type: toxicity, cell-based
[12] = Selectivity ratio of cytotoxicity against human WI38 cells to MIC for vancomycin resistant Enterococcus faecium NCTC 12204; type: toxicity, cell-based
Enterococcus faecium = assay: Antibacterial activity against vancomycin resistant Enterococcus faecium NCTC 12204 by microdilution broth method; type: functional
[13] = Selectivity ratio of cytotoxicity against human WI38 cells to MIC for Pseudomonas aeruginosa PAO1; type: toxicity, cell-based
Staphylococcus aureus [14] = assay: Antibacterial activity against methicillin sensitive Staphylococcus aureus NCTC 6571 by microdilution broth method; type: functional
DNA [15] = assay: Stabilization of 5'-FAM-TAT-ATA-TAG-ATA-TTT-TTT-TAT-CTA-TAT-ATA-3'-TAMRA DNA (unknown origin) assessed as reduction in change in melting temperature at 1:1 to 5:1 ligand to DNA ratio measured after 3 hrs by FRET-based assay relative to control; type: ADME, nucleic-acid assay
[16] = Selectivity ratio of cytotoxicity against human WI38 cells to MIC for methicillin sensitive Staphylococcus aureus NCTC 6571; type: toxicity, cell-based
[17] = Selectivity ratio of cytotoxicity against human WI38 cells to MIC for multidrug-resistant Acinetobacter baumannii AYE; type: toxicity, cell-based
Staphylococcus aureus [18] = assay: Antibacterial activity against methicillin resistant Staphylococcus aureus NCTC 13277 by microdilution broth method; type: functional
[19] = Selectivity ratio of cytotoxicity against human WI38 cells to MIC for methicillin resistant Staphylococcus aureus NCTC 13277; type: toxicity, cell-based
[20] = Selectivity ratio of cytotoxicity against human WI38 cells to MIC for multidrug-resistant Klebsiella pneumoniae NCTC 13368; type: toxicity, cell-based
Acinetobacter baumannii [21] = assay: Antimicrobial activity against multidrug-resistant Acinetobacter baumannii AYE by microdilution broth method; type: functional
Enterococcus faecalis [22] = assay: Antibacterial activity against vancomycin sensitive Enterococcus faecalis NCTC 775 by microdilution broth method; type: functional
Pseudomonas aeruginosa = assay: Antimicrobial activity against Pseudomonas aeruginosa PAO1 by microdilution broth method; type: functional

Row | SMILES | selectivity ratio [1] | selectivity ratio [2] | MIC (Acinetobacter baumannii [3]) [µg/mL] | viability at 24 h, 20 µM [4] [%] | selectivity ratio [5] | fold change (FC) (DNA [6]) | MIC (Staphylococcus aureus [7]) [µg/mL] | selectivity ratio [8] | selectivity ratio [9] | MIC (Enterococcus faecalis [10]) [µg/mL] | selectivity ratio [11] | selectivity ratio [12] | MIC (Enterococcus faecium) [µg/mL] | selectivity ratio [13] | MIC (Staphylococcus aureus [14]) [µg/mL] | fold change (FC) (DNA [15]) | selectivity ratio [16] | selectivity ratio [17] | MIC (Staphylococcus aureus [18]) [µg/mL] | selectivity ratio [19] | further results
1 | COc1cc2c(cc1OCCCC(=O)Nc1cc(C(=O)Nc3ccc4sc(C(=O)N5CCCCC5)cc4c3)n(C)c1)N=C[C@@H]1CCCN1C2=O | 10 | 10 | 8 (≈ 11.5 µM) | > 85 | 100 | 3 to 4 | 0.5 (≈ 0.718 µM) | 10 | 100 | ≤ 0.125 | 100 | 100 | ≤ 0.125 | 10 | ≤ 0.125 | 3 to 4 | 100 | 10 | 1 (≈ 1.44 µM) | 100 | selectivity ratio [20]: 10
2 | COC(=O)c1cc(NC(=O)c2cc3cc(NC(=O)c4cc(NC(=O)CCCOc5cc6c(cc5OC)C(=O)N5CCC[C@H]5C=N6)cn4C)ccc3s2)cn1C | – | – | 64 (≈ 83.6 µM) | 32 | – | 3 to 4 | 0.5 (≈ 0.653 µM) | – | – | ≤ 0.125 | – | – | ≤ 0.125 | – | ≤ 0.125 | 3 to 4 | – | – | 1 (≈ 1.31 µM) | – | MIC (Acinetobacter baumannii [21]): 64 µg/mL (≈ 83.6 µM); MIC (Enterococcus faecalis [22]): ≤ 0.125 µg/mL; MIC (Pseudomonas aeruginosa): > 128 µg/mL
3 | CCN(CC)C(=O)c1cc2cc(NC(=O)c3cc(NC(=O)CCCOc4cc5c(cc4OC)C(=O)N4CCC[C@H]4C=N5)cn3C)ccc2s1 | 10 | 10 | 2 (≈ 2.92 µM) | > 85 | 100 | 3 to 4 | 1 (≈ 1.46 µM) | 10 | 100 | 0.5 (≈ 0.73 µM) | 100 | 100 | 1 (≈ 1.46 µM) | 10 | – | 3 to 4 | 100 | 10 | 1 (≈ 1.46 µM) | 100 | MIC (Acinetobacter baumannii [21]): 2 µg/mL (≈ 2.92 µM); selectivity ratio [20]: 10
4 | COc1cc2c(cc1OCCCC(=O)Nc1cc(C(=O)Nc3ccc4sc(C(=O)N5CCOCC5)cc4c3)n(C)c1)N=C[C@@H]1CCCN1C2=O | 10 | 10 | 8 (≈ 11.4 µM) | > 85 | 100 | 3 to 4 | ≤ 0.125 | 10 | 100 | ≤ 0.125 | 100 | 100 | ≤ 0.125 | 10 | ≤ 0.125 | 3 to 4 | 100 | 10 | 0.5 (≈ 0.716 µM) | 100 | MIC (Enterococcus faecalis [22]): ≤ 0.125 µg/mL; MIC (Pseudomonas aeruginosa): 64 µg/mL (≈ 91.6 µM); selectivity ratio [20]: 10
5 | COc1cc2c(cc1OCCCC(=O)Nc1cc(C(=O)Nc3ccc4oc(C(=O)N5CCOCC5)cc4c3)n(C)c1)N=C[C@@H]1CCCN1C2=O | 10 | 10 | 8 (≈ 11.7 µM) | > 85 | 100 | 3 to 4 | ≤ 0.125 | 10 | 100 | ≤ 0.125 | 100 | 100 | ≤ 0.125 | 10 | ≤ 0.125 | 3 to 4 | 100 | 10 | – | 100 | MIC (Enterococcus faecalis [22]): ≤ 0.125 µg/mL; MIC (Pseudomonas aeruginosa): > 128 µg/mL; selectivity ratio [20]: 10
